Reference: patent publication US20050096349A1, “Methods to prevent or ameliorate medication-, procedure-or stress-induced cognitive and speech dysfunction and methods to optimize cognitive and speech functioning” (priority 2003, published 2005)

Tests used:
[1] = system: feeling dull and having difficulty concentrating
[2] = system: word finding difficulty; assay: Example 1: case report, atomoxetine added for word finding difficulty on topiramate; type: in vivo, patient; settings: for word finding (patient description): person on topiramate
Source text: (§1) Patient is a person with compulsive shopping (impulse control disorder, not otherwise specified), type II diabetes, and obesity. They have no other psychiatric disorders including mood or anxiety disorders.

[3] = system: feeling "cloudy" and "disoriented"; assay: Example 3: case report, atomoxetine added for feeling cloudy and disoriented on olanzapine, clonazepam, fiorinal; type: in vivo, patient
Protocol: Patient is a person with major depression, panic, generalized anxiety disorder, chronic headaches and fibromyalgia. They are on escitalopram 20 mg po qd, olanzapine 7.5 mg po qhs, clonazepam 0.5 mg po bid, and fiorinal prn. […] Atomoxetine was initiated at 18 mg po qd and increased to 25 mg po qd after 8 days.

[4] = system: compulsive shopping (impulse control disorder, not otherwise specified); assay: Example 1: case report, topiramate for compulsive shopping; type: in vivo, patient
Source text: as §1

Compound | improvement compared with 25 mg (patient description) ([1]; atomoxetine 40 mg po qd) | side effects ([1]; atomoxetine 40 mg po qd) | concentration and side effects ([1]; atomoxetine alternating 25 mg and 40 mg po qd every other day) | tolerability of effective dose of alpraxolam (2-4 mg/day) ([1]; on atomoxetine alternating 25 mg and 40 mg po qd) | concentration and ability to work (patient description) ([1]; person on escitalopram 20 mg po qd and alprazolam, atomoxetine 25 mg po qd, within a few days) | tolerability of higher topiramate dose ([2]; atomoxetine 40 mg po qd, tolerated for 2 months) | word finding (patient description) ([2]; atomoxetine 25 mg po qd, over the next month) | word finding (patient description) ([2]; atomoxetine 40 mg po qd, over the following month) | duration of stable effect ([3]; atomoxetine 25 mg po qd) [months] | tolerability of other medications in terms of cognitive functioning ([3]; on atomoxetine 25 mg po qd) | concentration, attention, focus (patient description) ([3]; person on escitalopram, olanzapine, clonazepam, fiorinal, atomoxetine 18 mg po qd increased to 25 mg po qd after 8 days) | weight ([4]; higher dosages of topiramate) | urges and control over shopping behaviors ([4]; person, topiramate dose slowly increased) | cognitive side effect ([4]; topiramate increased to 75 mg po qd)
CNCC[C@@H](Oc1ccccc1C)c1ccccc1 [Atomoxetine, atomoxetine] | did not have the same improvement as at 25 mg | felt dizzy and “spacy” | improved concentration without significant side effects | without difficulties in concentration/cognitive functioning | improved concentration and improved ability to work | could tolerate a topiramate dose of 100 mg without difficulty | mild improvement in word finding | noticeable improvement in their word finding | 2 | able to tolerate their other medications without difficulty in terms of cognitive functioning | improved concentration, attention, and “focus” |  |  | 
CC1(C)O[C@@H]2[C@@H](CO[C@@]3(COS(N)(=O)=O)OC(C)(C)O[C@@H]23)O1 [topiramate] |  |  |  |  |  |  |  |  |  |  |  | decreased weight | decreased urges and improved control over their shopping behaviors | word finding difficulty which persisted
